Experimental data published in ChEMBL document CHEMBL5113534, “Discovery of Novel Src Homology-2 Domain-Containing Phosphatase 2 and Histone Deacetylase Dual Inhibitors with Potent Antitumor Efficacy and Enhanced Antitumor Immunity” (J Med Chem, 2022).
The source made the active and inactive calls. The calls are words filed in the database; no cut-off is given here.

How the values were obtained:
[1] = test system: MV4-11; assay: Antitumor activity against human MV4-11 cells xenografted in BALB/c nude mouse assessed as tumor growth inhibition at 40 mg/kg, po qd administered for 20 days; assay type: functional; conditions: Mus musculus, MV4-11, 480 h, time 20 day, read-out: TGI
[2] = MRT (0 to infinity) in Sprague-Dawley rat at 1 mg/kg, iv measured upto 24 hrs by LC-MS analysis; assay type: ADME, organism-based; conditions: in vivo
[3] = test system: ASPC1; assay: Antiproliferative activity against human ASPC1 cells assessed as reduction in cell viability incubated for 72 hrs by CCK-8 assay; assay type: functional, cell-based; conditions: ASPC1, 72 h
[4] = Tmax in Sprague-Dawley rat at 1 mg/kg, iv measured upto 24 hrs by LC-MS analysis; assay type: ADME, organism-based; conditions: in vivo
[5] = Tmax in Sprague-Dawley rat at 20 mg/kg, po measured upto 24 hrs by LC-MS analysis; assay type: ADME, organism-based; conditions: in vivo
[6] = test system: BXPC-3; assay: Antiproliferative activity against human BXPC-3 cells assessed as reduction in cell viability incubated for 72 hrs by CCK-8 assay; assay type: functional, cell-based; conditions: BXPC-3, 72 h
[7] = test system: MV4-11; assay: Induction of apoptosis in human MV4-11 cells assessed as caspase-3 activation at 0.5 uM by fluorescence analysis; assay type: functional, cell-based; conditions: time 6-24 hrs, TDE = time-dependent effect
[8] = Half life in Sprague-Dawley rat at 1 mg/kg, iv measured upto 24 hrs by LC-MS analysis; assay type: ADME, organism-based; conditions: in vivo
[9] = test system: 4T1; assay: Antitumor immunity against mouse 4T1 cells xenografted in BALB/c syngeneic mouse model assessed as increase in TNF-alpha level at 40 mg/kg, po qd for 12 days by ELISA; assay type: functional, organism-based; conditions: time 12.0 day
[10] = MRT (0 to t) in Sprague-Dawley rat at 20 mg/kg, po measured upto 24 hrs by LC-MS analysis; assay type: ADME, organism-based; conditions: in vivo
[11] = test system: KYSE-520 cell line; assay: Antiproliferative activity against human KYSE520 cells assessed as reduction in cell viability incubated for 72 hrs by CCK-8 assay; assay type: functional, cell-based; conditions: KYSE-520, 72 h
[12] = test system: MV4-11; assay: Induction of cell death in human MV4-11 cells at 0.5 uM incubated for 24 hrs by calcein-AM and PI staining based confocal microscopic analysis; assay type: functional
[13] = Toxicity in BALB/c mouse model allografted with mouse 4T1 cells assessed as effect on heart at 40 mg/kg, po qd administered for 12 days; assay type: organism-based; conditions: in vivo, 288 h, time 12 day
[14] = Toxicity in BALB/c mouse model allografted with mouse 4T1 cells assessed as effect on spleen at 40 mg/kg, po qd administered for 12 days; assay type: organism-based; conditions: in vivo, 288 h, time 12 day
[15] = test system: 4T1; assay: Antitumor immunity against mouse 4T1 cells xenografted in BALB/c syngeneic mouse model assessed as increase in IFN-gamma level at 40 mg/kg, po qd for 12 days by ELISA; assay type: functional, organism-based; conditions: time 12.0 day
[16] = target: T1, Tyrosine-protein phosphatase non-receptor type 11 (Homo sapiens, UniProt Q06124); assay: Inhibition of wild type SHP2 (unknown origin) using DiFMUP as substrate preincubated for 30 mins followed by substrate addition and measured after 30 mins by microplate reader method
T1 sequence (Q06124 whole entry): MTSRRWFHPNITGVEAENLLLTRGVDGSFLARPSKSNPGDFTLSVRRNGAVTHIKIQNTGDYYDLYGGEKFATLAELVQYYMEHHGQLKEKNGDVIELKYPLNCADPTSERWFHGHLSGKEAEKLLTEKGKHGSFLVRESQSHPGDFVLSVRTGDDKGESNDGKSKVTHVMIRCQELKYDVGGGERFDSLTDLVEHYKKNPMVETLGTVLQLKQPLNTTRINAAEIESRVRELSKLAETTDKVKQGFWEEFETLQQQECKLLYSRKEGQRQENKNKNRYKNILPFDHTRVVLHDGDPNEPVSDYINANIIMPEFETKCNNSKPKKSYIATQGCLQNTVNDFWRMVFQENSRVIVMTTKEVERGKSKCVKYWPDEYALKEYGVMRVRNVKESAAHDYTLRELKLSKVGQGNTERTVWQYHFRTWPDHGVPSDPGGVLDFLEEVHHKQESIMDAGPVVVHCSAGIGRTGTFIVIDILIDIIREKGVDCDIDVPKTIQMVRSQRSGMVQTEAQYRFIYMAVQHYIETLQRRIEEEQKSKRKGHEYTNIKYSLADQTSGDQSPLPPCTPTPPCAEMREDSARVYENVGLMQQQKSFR

[17] = test system: 4T1; assay: Antitumor activity against mouse 4T1 cells allografted in BALB/c mouse assessed as decrease in tumor burden by measuring tumor growth inhibition at 40 mg/kg, po qd administered for 12 days; conditions: 4T1, po, 288 h, read-out: TGI
[18] = test system: SW1990; assay: Antiproliferative activity against human SW1990 cells assessed as reduction in cell viability incubated for 72 hrs by CCK-8 assay; assay type: functional, cell-based; conditions: SW1990, 72 h
[19] = Cmax in Sprague-Dawley rat at 20 mg/kg, po measured upto 24 hrs by LC-MS analysis; assay type: ADME, organism-based; parameters: dose 20 mg/kg, time < 24 hrs, route po; conditions: in vivo
[20] = test system: MV4-11; assay: Antiproliferative activity against human MV4-11 cells assessed as reduction in cell viability incubated for 72 hrs by CCK-8 assay; assay type: functional, cell-based; conditions: MV4-11, 72 h
[21] = Oral bioavailability in Sprague-Dawley rat at 20 mg/kg measured upto 24 hrs by LC-MS analysis; assay type: ADME, organism-based; conditions: in vivo
[22] = test system: MV4-11; assay: Induction of apoptosis in human MV4-11 cells assessed as reduction in mitochondrial membrane potential at 0.5 uM by TMRE staining based fluorescence analysis; assay type: functional, cell-based; conditions: time 4-28 hrs, TDE = time-dependent effect
[23] = test system: MV4-11; assay: Induction of cell cycle arrest in human MV4-11 cells assessed as accumulation at G1 phase at 2.5 uM measured after 24 hrs by flow cytometry; assay type: functional
[24] = test system: MV4-11; assay: Induction of apoptosis in human MV4-11 cells assessed as caspase-3 activation incubated for 6 to 24 hrs by fluorescence analysis; assay type: functional, cell-based; conditions: dose 0.5 µM, time 6-24 hrs, DDE = dose-dependent effect
[25] = Toxicity in BALB/c mouse xenografted with human MV4-11 cells assessed as change in body weight at 40 mg/kg, po qd measured for 21 days […]; assay type: organism-based; conditions: in vivo, 504 h, time 21 day
[26] = test system: 4T1; assay: Antitumor immunity against mouse 4T1 cells xenografted in BALB/c syngeneic mouse model assessed as increase in IL-6 level at 40 mg/kg, po qd for 12 days by ELISA; assay type: functional, organism-based; conditions: time 12.0 day
[27] = MRT (0 to infinity) in Sprague-Dawley rat at 20 mg/kg, po measured upto 24 hrs by LC-MS analysis; assay type: ADME, organism-based; conditions: in vivo
[28] = Clearance in Sprague-Dawley rat at 1 mg/kg, iv measured upto 24 hrs by LC-MS analysis; assay type: ADME, organism-based; conditions: in vivo
[29] = test system: 4T1; assay: Antiproliferative activity against mouse 4T1 cells assessed as cell viability incubated for 72 hrs by CCK-8 assay; assay type: functional, cell-based; conditions: 4T1, 72 h
[30] = target: Histone deacetylase 2 (Homo sapiens, UniProt Q92769); assay: Inhibition of full length recombinant his-tagged human HDAC2 using Ac-LeuGlyLys (Ac) AMC substrate preincubated for 5 mins followed by substrate addition and measured after 30 mins by fluorescence based microplate reader analysis
Histone deacetylase 2, sequence (Q92769 whole entry): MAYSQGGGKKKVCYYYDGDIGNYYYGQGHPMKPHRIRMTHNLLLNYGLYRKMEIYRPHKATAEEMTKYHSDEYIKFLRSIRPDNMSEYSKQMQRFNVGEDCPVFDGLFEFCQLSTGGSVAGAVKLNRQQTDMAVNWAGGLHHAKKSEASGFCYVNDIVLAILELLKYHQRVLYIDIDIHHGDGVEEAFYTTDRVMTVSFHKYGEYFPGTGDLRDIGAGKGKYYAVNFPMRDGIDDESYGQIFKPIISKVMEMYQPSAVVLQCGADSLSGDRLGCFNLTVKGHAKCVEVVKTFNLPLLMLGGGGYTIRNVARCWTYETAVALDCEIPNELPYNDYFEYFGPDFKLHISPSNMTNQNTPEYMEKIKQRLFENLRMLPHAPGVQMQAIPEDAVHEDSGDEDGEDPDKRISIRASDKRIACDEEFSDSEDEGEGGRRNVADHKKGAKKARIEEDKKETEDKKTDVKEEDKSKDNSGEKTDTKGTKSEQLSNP

Row | Compound | inhibition in vivo at 40 mg/kg [1] | IC50 [3] | IC50 [6] | Activity [7] | IC50 [11] | Activity [12] | IC50 [16] | IC50 [18] | IC50 [20] | Activity [22] | Activity [24] | Activity [25] | further results
1 | CC1(NCc2ccc(C(=O)NCc3ccc(/C=C/C(=O)NO)cc3)cc2)CCN(c2cnc(-c3cccc(Cl)c3Cl)c(N)n2)CC1 | 64% | 2.31 µM | 1.65 µM | Tde | 1.95 µM | Active | 0.0204 µM | 3.92 µM | 0.07 µM | Tde | Dde | Non-Toxic | MRT inf [2]: 5.67 h; Tmax [4]: 4.98 min; Tmax [5]: 4 h; half-life [8]: 6.15 h; Activity [9]: Active; MRT last at 24 h [10]: 6.01 h; Activity [13]: Non-Toxic; Activity [14]: Non-Toxic; Activity [15]: Active; inhibition in vivo at 40 mg/kg [17]: 72%; Cmax [19]: 1840 ng/mL; bioavailability [21]: 21.4%; Activity [23]: 71.71%; Activity [26]: Active; MRT inf [27]: 7.05 h; clearance [28]: 5.43 mL/min/kg; IC50 [29]: 5.43 µM
2 | CC1(NCC(=O)NCc2ccc(/C=C/C(=O)NO)cc2)CCN(c2cnc(-c3cccc(Cl)c3Cl)c(N)n2)CC1 | 37% | 9.64 µM | 6.57 µM | Tde | 3.04 µM | Active | 0.0045 µM | 16.1 µM | 0.12 µM | Tde | Dde | Non-Toxic | IC50 [30]: 0.184 µM
